The assay has as its target Signal transducer and activator of transcription 3 (Homo sapiens, UniProt P40763). As to the kind of experiment: Binding affinity to recombinant GST tagged STAT3 (unknown origin) assessed as dissociation constant.

Chain of Signal transducer and activator of transcription 3 (P40763 whole entry): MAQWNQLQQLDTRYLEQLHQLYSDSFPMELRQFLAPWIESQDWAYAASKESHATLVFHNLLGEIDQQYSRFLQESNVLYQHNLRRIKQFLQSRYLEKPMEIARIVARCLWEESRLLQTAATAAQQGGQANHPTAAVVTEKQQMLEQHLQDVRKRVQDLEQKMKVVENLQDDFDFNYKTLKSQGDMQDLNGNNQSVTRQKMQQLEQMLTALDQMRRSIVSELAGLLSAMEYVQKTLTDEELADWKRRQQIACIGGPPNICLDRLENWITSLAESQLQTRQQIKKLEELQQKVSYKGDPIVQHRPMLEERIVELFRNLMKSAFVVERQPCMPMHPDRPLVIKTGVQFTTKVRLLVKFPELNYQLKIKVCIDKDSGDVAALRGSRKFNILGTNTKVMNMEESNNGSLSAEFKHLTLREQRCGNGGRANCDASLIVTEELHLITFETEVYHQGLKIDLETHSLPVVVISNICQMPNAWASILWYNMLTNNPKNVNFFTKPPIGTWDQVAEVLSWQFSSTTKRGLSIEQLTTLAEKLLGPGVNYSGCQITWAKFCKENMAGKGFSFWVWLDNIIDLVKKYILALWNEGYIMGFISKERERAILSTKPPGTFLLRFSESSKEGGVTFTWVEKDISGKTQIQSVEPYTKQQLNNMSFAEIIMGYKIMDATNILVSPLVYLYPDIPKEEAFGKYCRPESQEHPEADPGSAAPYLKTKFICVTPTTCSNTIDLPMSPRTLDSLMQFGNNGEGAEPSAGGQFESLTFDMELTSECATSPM

Turning to `COc1cc(/C=C/c2ccc(OCCCCCCC(=O)NO)cc2)cc(OC)c1`, the off-rate (koff) (in general, the rate constant with which the complex falls apart) is 0.0152 s⁻¹.

Source of the values: BindingDB's records for PubMed 34043359 (China Pharmaceutical University, 2021).
